Where “and” joins values, the source holds several entries; their conditions need not be identical. Identical values can stand only once. ± gives the uncertainty stated by the source.
Assay: xn = mol fraction of the nth substance listed

C[N+](CCO)(CCO)CCO.[Cl-] + NC(N)=O
100 kPa, x1 = 0.5
Details | viscosity [mPa·s]
293.15 K | 6026 ± 390
298.15 K | 3662 ± 210
303.15 K | 2352 ± 120
308.15 K | 1540 ± 73
313.15 K | 1026 ± 44
318.15 K | 717 ± 28
323.15 K | 505 ± 18

CN(C)c1ccccc1 + CC(C)O
303.15 K, 101 kPa
Details | viscosity [mPa·s]
x1 = 0.0564 | 1.727 ± 0.016
x1 = 0.1136 | 1.655 ± 0.015
x1 = 0.1989 | 1.56 ± 0.015
x1 = 0.2689 | 1.492 ± 0.014
x1 = 0.3245 | 1.439 ± 0.014
x1 = 0.3767 | 1.401 ± 0.013
x1 = 0.4258 | 1.369 ± 0.013
x1 = 0.4878 | 1.33 ± 0.013
x1 = 0.5655 | 1.288 ± 0.013
x1 = 0.6305 | 1.259 ± 0.012
x1 = 0.7385 | 1.22 ± 0.012
x1 = 0.8187 | 1.199 ± 0.012
x1 = 0.9243 | 1.18 ± 0.012

CC(=O)CC(C)=O + CCC(C)(C)O
298.15 K, 101 kPa
Details | viscosity [mPa·s]
x1 = 0.1 | 2.481 ± 0.02
x1 = 0.2 | 1.809 ± 0.017
x1 = 0.3 | 1.39 ± 0.014
x1 = 0.4 | 1.138 ± 0.013
x1 = 0.5 | 0.987 ± 0.012
x1 = 0.6 | 0.893 ± 0.012
x1 = 0.7 | 0.827 ± 0.012
x1 = 0.8 | 0.776 ± 0.012
x1 = 0.9 | 0.733 ± 0.012

CC(CC(C)(C)C)CC(C)(C)C + Cc1ccc(C)c(C)c1
viscosity [mPa·s], 102 kPa
Details | x2 = 0.0923 | x2 = 0.2008 | x2 = 0.3004 | x2 = 0.4003 | x2 = 0.4979 | x2 = 0.5999 | x2 = 0.7003 | x2 = 0.7999 | x2 = 0.8992
293.15 K | 1.24 ± 0.02 | 1.16 ± 0.02 | 1.09 ± 0.02 | 1.03 ± 0.02 | 0.975 ± 0.022 | 0.93 ± 0.022 | 0.891 ± 0.021 | 0.864 ± 0.021 | 0.848 ± 0.022
303.15 K | 1.05 ± 0.02 | 0.981 ± 0.021 | 0.926 ± 0.021 | 0.882 ± 0.021 | 0.845 ± 0.021 | 0.808 ± 0.021 | 0.776 ± 0.021 | 0.75 ± 0.021 | 0.736 ± 0.021
313.15 K | 0.906 ± 0.021 | 0.855 ± 0.021 | 0.813 ± 0.021 | 0.774 ± 0.021 | 0.739 ± 0.021 | 0.709 ± 0.021 | 0.679 ± 0.021 | 0.657 ± 0.021 | 0.647 ± 0.021
323.15 K | 0.789 ± 0.021 | 0.749 ± 0.021 | 0.716 ± 0.021 | 0.683 ± 0.021 | 0.652 ± 0.021 | 0.625 ± 0.021 | 0.602 ± 0.021 | 0.582 ± 0.021 | 0.573 ± 0.021

CC(=O)CC(C)=O + CO
303.15 K, 101 kPa
Details | viscosity [mPa·s]
x1 = 0.0502 | 0.51 ± 0.004
x1 = 0.1002 | 0.516 ± 0.004
x1 = 0.3002 | 0.547 ± 0.004
x1 = 0.5 | 0.579 ± 0.004
x1 = 0.6983 | 0.611 ± 0.004
x1 = 0.9004 | 0.645 ± 0.005
x1 = 0.9511 | 0.655 ± 0.005

CC(C)[C@H](N)C(=O)O + O
101 kPa
Details | viscosity
293.15 K, x1 = 0.005375 | 1.137 ± 0.024 mPa·s
293.15 K, x1 = 0.007154 | 1.185 ± 0.025 mPa·s
293.15 K, x1 = 0.008925 | 1.236 ± 0.026 mPa·s
298.15 K, x1 = 0.0001 | 0.9194 ± 0.043 mPa·s and 0.9194 ± 0.031 mPa·s
298.15 K, x1 = 0.0004318 | 0.9217 ± 0.043 mPa·s and 0.9217 ± 0.031 mPa·s
298.15 K, x1 = 0.00045 | 0.8955 ± 0.021 mPa·s
298.15 K, x1 = 0.0006308 | 0.9343 ± 0.044 mPa·s and 0.9343 ± 0.031 mPa·s
298.15 K, x1 = 0.0009 | 0.9038 ± 0.021 mPa·s
298.15 K, x1 = 0.001048 | 0.9493 ± 0.045 mPa·s and 0.9493 ± 0.031 mPa·s
298.15 K, x1 = 0.00135 | 0.9129 ± 0.021 mPa·s
298.15 K, x1 = 0.001416 | 0.9595 ± 0.045 mPa·s and 0.9595 ± 0.031 mPa·s
298.15 K, x1 = 0.001787 | 0.9689 ± 0.046 mPa·s and 0.9689 ± 0.031 mPa·s
298.15 K, x1 = 0.0018 | 0.9222 ± 0.021 mPa·s
298.15 K, x1 = 0.002245 | 0.9318 ± 0.021 mPa·s
298.15 K, x1 = 0.002695 | 0.9413 ± 0.022 mPa·s
298.15 K, x1 = 0.003711 | 0.9967 ± 0.047 mPa·s and 0.9967 ± 0.031 mPa·s
298.15 K, x1 = 0.005362 | 1.026 ± 0.048 mPa·s and 1.026 ± 0.031 mPa·s
298.15 K, x1 = 0.007185 | 1.05 ± 0.049 mPa·s and 1.05 ± 0.031 mPa·s
303.15 K, x1 = 0.0004 | 0.803 ± 0.007 mPa·s
303.15 K, x1 = 0.00045 | 0.8023 ± 0.018 mPa·s
303.15 K, x1 = 0.0007 | 0.808 ± 0.007 mPa·s
303.15 K, x1 = 0.0009 | 0.8101 ± 0.019 mPa·s
303.15 K, x1 = 0.001 | 0.814 ± 0.007 mPa·s and 0.821 ± 0.007 mPa·s
303.15 K, x1 = 0.00135 | 0.8187 ± 0.019 mPa·s
303.15 K, x1 = 0.0018 | 0.8274 ± 0.019 mPa·s
303.15 K, x1 = 0.002245 | 0.8364 ± 0.019 mPa·s
303.15 K, x1 = 0.002695 | 0.8456 ± 0.019 mPa·s
303.15 K, x1 = 0.003592 | 0.861 ± 0.018 mPa·s
303.15 K, x1 = 0.005375 | 0.8951 ± 0.019 mPa·s
303.15 K, x1 = 0.007154 | 0.9297 ± 0.02 mPa·s
303.15 K, x1 = 0.008925 | 0.9658 ± 0.02 mPa·s
308.15 K, x1 = 0.0001 | 0.7889 ± 0.037 mPa·s and 0.7889 ± 0.031 mPa·s
308.15 K, x1 = 0.0004318 | 0.7978 ± 0.038 mPa·s and 0.7978 ± 0.031 mPa·s
308.15 K, x1 = 0.00045 | 0.7239 ± 0.017 mPa·s
308.15 K, x1 = 0.0006308 | 0.8045 ± 0.038 mPa·s and 0.8045 ± 0.031 mPa·s
308.15 K, x1 = 0.001048 | 0.8147 ± 0.038 mPa·s and 0.8147 ± 0.031 mPa·s
308.15 K, x1 = 0.00135 | 0.7396 ± 0.017 mPa·s
308.15 K, x1 = 0.001416 | 0.8249 ± 0.039 mPa·s and 0.8249 ± 0.031 mPa·s
308.15 K, x1 = 0.001787 | 0.8389 ± 0.04 mPa·s and 0.8389 ± 0.031 mPa·s
308.15 K, x1 = 0.0018 | 0.7478 ± 0.017 mPa·s
308.15 K, x1 = 0.002245 | 0.7561 ± 0.017 mPa·s
308.15 K, x1 = 0.002695 | 0.7648 ± 0.017 mPa·s
308.15 K, x1 = 0.003711 | 0.8751 ± 0.041 mPa·s and 0.8751 ± 0.031 mPa·s
308.15 K, x1 = 0.005362 | 0.9003 ± 0.043 mPa·s and 0.9003 ± 0.031 mPa·s
308.15 K, x1 = 0.007185 | 0.9207 ± 0.043 mPa·s and 0.9207 ± 0.031 mPa·s
313.15 K, x1 = 0.00045 | 0.6573 ± 0.015 mPa·s
313.15 K, x1 = 0.0009 | 0.6645 ± 0.015 mPa·s
313.15 K, x1 = 0.00135 | 0.6722 ± 0.015 mPa·s
313.15 K, x1 = 0.0018 | 0.6799 ± 0.016 mPa·s
313.15 K, x1 = 0.001804 | 0.6773 ± 0.014 mPa·s
313.15 K, x1 = 0.002245 | 0.6878 ± 0.016 mPa·s
313.15 K, x1 = 0.002695 | 0.696 ± 0.016 mPa·s
313.15 K, x1 = 0.003592 | 0.7008 ± 0.015 mPa·s
313.15 K, x1 = 0.005375 | 0.7269 ± 0.015 mPa·s
313.15 K, x1 = 0.007154 | 0.752 ± 0.016 mPa·s
318.15 K, x1 = 0.0001 | 0.6823 ± 0.032 mPa·s and 0.6823 ± 0.031 mPa·s
318.15 K, x1 = 0.0004318 | 0.6985 ± 0.033 mPa·s and 0.6985 ± 0.031 mPa·s
318.15 K, x1 = 0.00045 | 0.6017 ± 0.014 mPa·s
318.15 K, x1 = 0.0006308 | 0.7009 ± 0.033 mPa·s and 0.7009 ± 0.031 mPa·s
318.15 K, x1 = 0.001048 | 0.7128 ± 0.034 mPa·s and 0.7128 ± 0.031 mPa·s
318.15 K, x1 = 0.00135 | 0.6159 ± 0.014 mPa·s
318.15 K, x1 = 0.001416 | 0.7308 ± 0.035 mPa·s and 0.7308 ± 0.031 mPa·s
318.15 K, x1 = 0.001787 | 0.7418 ± 0.035 mPa·s and 0.7418 ± 0.031 mPa·s
318.15 K, x1 = 0.0018 | 0.6233 ± 0.014 mPa·s
318.15 K, x1 = 0.002245 | 0.631 ± 0.015 mPa·s
318.15 K, x1 = 0.002695 | 0.6386 ± 0.015 mPa·s
318.15 K, x1 = 0.003711 | 0.7743 ± 0.037 mPa·s and 0.7743 ± 0.031 mPa·s
318.15 K, x1 = 0.005362 | 0.7995 ± 0.038 mPa·s and 0.7995 ± 0.031 mPa·s
318.15 K, x1 = 0.007185 | 0.8105 ± 0.038 mPa·s and 0.8105 ± 0.031 mPa·s
323.15 K, x1 = 0.001804 | 0.5656 ± 0.012 mPa·s
323.15 K, x1 = 0.003592 | 0.5841 ± 0.012 mPa·s
323.15 K, x1 = 0.008925 | 0.6454 ± 0.014 mPa·s

CN(C)c1ccccc1 + CCC(=O)O
viscosity [mPa·s], 101 kPa
Details | x2 = 0.1014 | x2 = 0.2025 | x2 = 0.305 | x2 = 0.3966 | x2 = 0.5057 | x2 = 0.6027 | x2 = 0.6922 | x2 = 0.8012 | x2 = 0.8905 | x2 = 0.8987
298.15 K | 1.364 ± 0.015 | 1.416 ± 0.015 | 1.478 ± 0.016 | 1.527 ± 0.016 | 1.583 ± 0.016 | 1.651 ± 0.017 | 1.69 ± 0.017 | 1.657 ± 0.017 | 1.467 ± 0.016 | –
303.15 K | – | – | – | – | – | – | – | – | – | 1.225 ± 0.039

Source: the CheMixHub viscosity set
